Assay results published in publication PMC9322761, “Design, Synthesis and Biological Characterization of Histone Deacetylase 8 (HDAC8) Proteolysis Targeting Chimeras (PROTACs) with Anti-Neuroblastoma Activity” (International Journal of Molecular Sciences, 2022).

Tests used:
[1] = tested on: acetylated SMC3; assay: Acetylation of HDAC8 substrate SMC3 in SK-N-BE(2)-C cells (Western blot); type: cell-based, human; conditions: 10 µM
Description: To test the degradation of HDAC8 with the developed PROTACs, we selected the most promising compounds obtained from the cellular neuroblastoma testing; namely CRBN_1b, CRBN_1d, CRBN_1e, HyT_1m, and HyT_1p. Whole cell lysates from treated SK-N-BE(2)-C neuroblastoma cells were taken and the protein levels for HDAC8 and the acetylation of its substrate SMC3 were determined (Figure 6). As a control for HDAC6, we also assessed acetylation levels of α-tubulin. […]. A clear dose-dependent degradation of HDAC8 by PROTAC CRBN_1e was observed (Figure 6C). After 48 h, the HDAC8 protein level was back to baseline, presumably due to de novo protein synthesis. […]. Western blot analysis was performed as described previously (Kolbinger et al.). […]
Figure 6 (A) SK-N-BE(2)-C neuroblastoma cells were treated for indicated time points with 10 µM of PROTACs. Degradation of HDAC8 and acetylation of HDAC8 target was analyzed via Western blot. […] Acetylation of HDAC8 target SMC3 and HDAC6 target tubulin, as well as total HDAC8 levels, were assessed by Western blot. Quantified ac-SMC3 or ac-tubulin expression, respectively, was normalized to the respective tubulin loading control and to the solvent control (DMSO). This quantification is reflected by the numbers below each blot. […] Total HDAC6, total HDAC1, total HDAC8, and acetyl-histone H4 expression levels, were assessed by Western blot. […]

[2] = Non-enzymatic stability in assay medium (HPLC); conditions: 37 °C, 10 µM, pH7.4
Description: Non-enzymatic stability of selected final compounds was determined using 10 µM concentration of the tested PROTACs in one of the following assay media; Dulbecco’s modified Eagle medium (DMEM) (50%)/dimethylsulfoxid (10%)/acetonitrile (40%) or DMEM (50%)/dimethylsulfoxid (10%)/methanol (40%) mixture at pH7.4. The formed solution mixtures were incubated for 0, 6, 12, and 24 h at 37 °C. Analyte decomposition was monitored by HPLC using XTerra RP18 column (3.5 mm, 3.9 mm × 100 mm) from the manufacturer Waters (Milford, MA, USA) and two LC-10AD pumps, a SPD-M10A VP PDA detector, and a SIL-HT autosampler, all from the manufacturer Shimadzu (Kyoto, Japan).

Row | Compound | Hyperacetylation of HDAC8 substrate SMC3 [1] | Non-enzymatic stability, compound remaining ([2]; 6 h) [%] | Non-enzymatic stability, compound remaining ([2]; 24 h) [%]
1 | COC(=O)c1ccc(C)c(NCc2ccc(OCc3cn(CCCCCC(=O)Nc4cccc5c4C(=O)N(C4CCC(=O)NC4=O)C5=O)nn3)cc2)c1 (stereo not drawn) [33a] | did not show hyperacetylation |  | 
2 | COc1ccc(C(=O)NO)cc1NC(=O)c1ccc(NC(=O)CCCCCCCNc2cccc3c2C(=O)N(C2CCC(=O)NC2=O)C3=O)cc1 (stereo not drawn) [CRBN_1b] |  | 100.0 | 91.6
